# Target: T1, C. tropicalis D-arabinitol dehydrogenase (Candida tropicalis, UniProt P50166)
# T1 construct: endogenous in cells
# Experiment: Specificity of the fluorogenic D-arabinitol assay (reactivity of sugars and sugar alcohols)
# Assay type: biochemical
# Details: compound 5 μmol/L in PBS/10 mmol/L citrate pH 4.0; relative to D-arabinitol
# Method: Human serum was diluted 1:3 (v/v) with 10 mmol/L citrate (pH 4.0), placed in a boiling water bath for 10 min, and then centrifuged at 10,000×g for 10 min to remove precipitated material. The supernatant was used as the sample. Reaction mixtures (vol.=0.4 mL) contained 0.3 mL of sample, 1 mmol/L NAD^+, 4 mmol/L Mg^2+, 0.35 IU C. tropicalis D-arabinitol dehydrogenase prepared as described in Example 1, and 0.1 mol/L Tris (pH 9.5). Incubation was for 15 min at room temperature to promote the D-arabinitol dehydrogenase-catalyzed oxidation of D-arabinitol with concomitant reduction of NAD^+ to NADH. This initial incubation stage was terminated by reducing the pH of the reaction mixture to 5.8 with 0.03 mL 1.0 mol/L citrate (pH 3.6). Resazurin (12.5 μmol/L) and diaphorase (0.15 IU) were then added, and the sample was reincubated at room temperature to promote the diaphorase-catalyzed utilization of NADH (which had accumulated in the initial incubation stage) for the reduction of resazurin to resorufin. Formation of the latter was monitored fluorometrically (Excitation=560 nm, Emission=580 nm) using a Perkin-Elmer fluorescence spectrophotometer, Model #650-40, and was complete within 30 sec.
# A series of sugars and sugar alcohols normally present in human serum were assessed for reactivity in the fluorometric assay. Of the compounds examined, significant reactivity relative to that observed with an equimolar concentration of D-arabinitol was found only with xylitol (3.3%). D-glucose at concentrations as great as 5.0 mmol/L was not utilized as “a” substrate.
# Assays were performed as described in Example 4 except the sample contained, instead of the boiled serum supernatant, the indicated compound in PBS/10 mmol/L citrate, pH 4.0 (1:3, v/v).
# T1 sequence (P50166 whole entry): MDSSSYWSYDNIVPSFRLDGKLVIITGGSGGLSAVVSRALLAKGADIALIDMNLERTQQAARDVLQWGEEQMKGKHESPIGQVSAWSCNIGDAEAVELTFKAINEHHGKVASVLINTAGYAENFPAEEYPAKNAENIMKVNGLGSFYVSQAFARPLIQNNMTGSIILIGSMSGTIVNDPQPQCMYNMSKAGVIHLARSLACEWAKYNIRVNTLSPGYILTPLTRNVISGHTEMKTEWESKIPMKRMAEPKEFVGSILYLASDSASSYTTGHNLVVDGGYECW
row,SMILES,Relative Reactivity [%]
1,OC[C@@H](O)C(O)[C@H](O)CO [D-arabinitol],100
2,OC[C@@H](O)[C@@H](O)[C@H](O)[C@H](O)CO [D-mannitol],0
3,OC[C@@H](O)[C@@H](O)[C@H](O)[C@@H](O)CO [D-sorbitol],0.1
4,OC[C@H](O)C(O)[C@@H](O)CO [L-arabinitol],0
5,OC[C@@H](O)[C@@H](O)CO [erythritol],0
6,OC[C@@H](O)[C@H](O)[C@H](O)[C@@H](O)CO [galactitol],0.6
7,OC[C@@H](O)[C@@H](O)[C@@H](O)CO [ribitol],0
8,OC[C@@H](O)[C@H](O)CO [threitol],0.1
9,OC[C@@H](O)[C@H](O)[C@@H](O)CO [xylitol],3.3

# Same assay, conditions: compound 500 μmol/L in PBS/10 mmol/L citrate pH 4.0; relative to D-arabinitol
row,SMILES,Relative Reactivity [%]
1,O=C(CO)[C@@H](O)[C@H](O)[C@H](O)CO [D-fructose],0
2,O=C[C@H](O)[C@@H](O)[C@@H](O)[C@H](O)CO [D-galactose],0.9
3,O=C[C@@H](O)[C@@H](O)[C@H](O)[C@H](O)CO [D-mannose],0.3

# Same assay, conditions: compound 5000 μmol/L in PBS/10 mmol/L citrate pH 4.0; relative to D-arabinitol
row,SMILES,Relative Reactivity [%]
1,O=C[C@H](O)[C@@H](O)[C@H](O)[C@H](O)CO [D-glucose],0

# Same assay, conditions: concentrations as great as 5.0 mmol/L
row,SMILES,Utilization as substrate in the fluorometric assay
1,O=C[C@H](O)[C@@H](O)[C@H](O)[C@H](O)CO [D-glucose],not utilized
